From patent US8022076B2, “Substituted thieno[2,3-d]pyrimidines as potassium channel inhibitors” (Xention Limited, priority 2003, dated 2011) come the findings set out here.

One series deals with hKv1.5 (Homo sapiens, UniProt P22460). Kind of series: Kv1.5 Autopatch electrophysiology (whole cell patch-clamp). It is filed as cell-based. The note with it: hKv1.5 current, compound at 1 μM. On the procedure: The external bathing solution contained (in mM): 150 NaCl, 10 KCl, […], 3 MgCl2, 1 CaCl2, 10 HEPES, pH 7.4. Patch pipettes were filled with an electrode solution of composition (in mM): 160 KCl, 0.5 MgCl2, 10 HEPES, 1 EGTA, pH 7.4 with KOH.
Chain of hKv1.5 (P22460 whole entry): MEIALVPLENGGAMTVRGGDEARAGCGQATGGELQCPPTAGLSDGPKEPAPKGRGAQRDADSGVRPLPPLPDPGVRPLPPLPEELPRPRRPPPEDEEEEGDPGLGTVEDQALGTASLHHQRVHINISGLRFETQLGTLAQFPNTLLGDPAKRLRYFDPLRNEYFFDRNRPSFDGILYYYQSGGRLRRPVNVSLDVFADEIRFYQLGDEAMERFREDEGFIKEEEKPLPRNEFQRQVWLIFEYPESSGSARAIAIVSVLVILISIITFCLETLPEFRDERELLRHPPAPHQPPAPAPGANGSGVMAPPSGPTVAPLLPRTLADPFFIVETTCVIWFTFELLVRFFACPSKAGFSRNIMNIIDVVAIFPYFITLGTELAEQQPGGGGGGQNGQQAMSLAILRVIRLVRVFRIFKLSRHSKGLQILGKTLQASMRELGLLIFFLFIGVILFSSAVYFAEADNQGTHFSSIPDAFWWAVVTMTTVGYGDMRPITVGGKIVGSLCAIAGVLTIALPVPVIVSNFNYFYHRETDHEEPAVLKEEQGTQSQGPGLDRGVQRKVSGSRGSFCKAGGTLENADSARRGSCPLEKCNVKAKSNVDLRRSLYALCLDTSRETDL
Compounds were dissolved in DMSO (100%) and made up in the external bather at a concentration of 1 μM. All experiments were conducted at room temperature (22-24° C.).
A cell suspension (10 ml), with a density of 100,000 cells/ml, was aliquoted into a 15 ml centrifuge tube and transferred to an incubator (37° C., 5% CO2) for approximately one hour before use. Following 60 min incubation, a tube was taken and centrifuged at 1000 rpm for 4 mins at room temperature. 9.5 ml supernatant was thence discarded, leaving a cell pellet at the bottom of the tube. The pellet was then resuspended using 100 μl of cold (4° C.), filtered (0.22 μm), 0.2% BSA/bather solution (0.02 g BSA/10 ml bather). The bottom of the tube was manually agitated gently until the solution became cloudy with cells. The 100 μl cell resuspension solution was then stored on the bench at 4° C. (using a Peltier-based temperature control device) until used.
A length of capillary glass (1B150E-4, WPI) was dipped into the cell suspension solution, such that ˜3 cm column of fluid was taken up by capillary action. A Ag/AgCl wire was dropped into the non-dipped end of the capillary also. The outside of the solution-filled end of the capillary was then dried and the capillary was loaded into the AutoPatch™
Borosilicate glass patch pipettes (from 1.5 mm OD, thin-walled filamented, GC150-TF capillary glass, Harvard) were pulled using a DMZ pipette puller (Zeitz Instruments), and were back-filled using the internal pipette solution, being careful that no bubbles remain at the tip or in the body of the pipette. […]
Electrophysiology voltage-step protocols and analysis of data was performed as follows. […] Currents were analysed using Pulsefit software (v8.54, HEKA, Germany), with the total charge measured during the whole of the voltage step. […]
Take `c1ccc(-c2csc3ncnc(NCC4CCCCC4)c23)cc1` [Example 89, Cyclohexylmethyl-(5-phenyl-thieno[2,3-d]pyrimidin-4-yl)-amine]: the inhibition – broadly, the share of the control response that was lost under treatment – at 1 µM amounted to 73.4%. Regarding `COCc1nc(NCc2ccccn2)c2c(-c3ccccc3)csc2n1` [Example 305, (2-Methoxymethyl-5-phenylthien[2,3-d]primidin-4-yl)pyridin-2-ylmethylamine], the % Inhibition – broadly, the relative decrease from the control value, in per cent – at 1 μM is 94.0%. Turning to “3-{5-Phenyl-4-[(pyridin-2-ylmethyl)-amino]-thieno[2,3-d]pyrimidin-2-ylamino)}-propane-1,2-diol [Example 214]”, the “% Inhibition at 1 μM” value stood at 87.0%.

The target of a further series is T1, human Kv1.5 (Homo sapiens, UniProt P22460).
T1 construct: expressed in transfected cells; stably transfected, blasticidin selection
T1 sequence (P22460 whole entry): as above
Kind of series: Kv1.5 Rb+ efflux assay. The note with it: inhibition of 86Rb+ efflux through Kv1.5, cells stably transfected with human Kv1.5, 10 point concentration response curves n=2. It is filed as cell-based. How it is done: The pore of a potassium channel is permeable to other monovalent cations such as Rb^+ and Tl^+. Analysis of cellular efflux of potassium channel permeable ions enables potassium channel activity to be monitored directly. Cells stably transfected with cDNA for human Kv1.5 (in pEF6::VA-His-TOPO) were grown in Dulbecco's Modified Eagle media (DMEM) alpha supplemented with 10% Fetal Calf Serum (FCS), 20 μl/ml penicillin (5000 U/ml) streptomycin (5000 μg/ml), 10 μl/ml [100×] glutamine, and blasticidin (7.5 μg/ml). Cells were dispensed into 96 well cellstar TC plates and allowed to grow until a confluent monolayer was visible. On the morning of the assay run, cold media was aspirated using the TECAN plate washer, and a 50 μl media spike containing 2 μCi/ml (37 kBq/ml) ^86Rb^+ added to each well containing cells using the Shallow-Well Matrix Platemate. Plates were placed in a incubator at 37° C. for a minimum of 3 hours. Unloaded ^86Rb^+ in the “hot” media was aspirated and each well washed 4×250 μl with Earls Balanced Salt Solution (EBSS) which contained 5 mM KCl, 140 mM NaCl, 2 mM CaCl2, 1 mM MgSO4, 10 mM HEPES, and 5 mM glucose, pH 7.4, 290-300 mOsm. These cells were then pre-incubated with 50 μl of EBSS+/−test compounds for 10 minutes at room temperature. After the 10 minute incubation, 50 μl of modified EBSS which contained 145 mM KCl, 2 mM CaCl2, 1 mM MgSO4, 10 mM HEPES, 5 mM glucose, pH 7.4, 290-300 mOsm, was added, and the cells were incubated for a further 10 minutes at room temperature. The high KCl EBSS was used to depolarise cells to a membrane potential that would activate Kv1.5 channels. After the final incubation 80 μl/100 μl of the reaction from each well was transferred to equivalent wells in a Packard “Optiplate” white 96 well plate and counted in a Packard TopCount liquid scintillation counter by Cerenkov emission. Percentage inhibition ^86Rb^+ efflux through Kv1.5 was calculated by normalisation to 2.5 mM 4 amino-pyridine control block of Kv1.5. Alternatively cells were loaded with ^85Rb^+ and quantified by atomic absorption spectroscopy. IC50 determinations were derived from 10 point concentration response curves n=2 using the method described above. Data was fitted as variable slope sigmoidal fit using Graphpad Prism (V3.02) software.
For `CN(C)c1nc(NCc2ccccn2)c2c(-c3ccccc3)csc2n1` [Example 198, N^2,N^2-Dimethyl-5-phenyl-N^4-pyridin-2-ylmethyl-thieno[2,3-d]pyrimidine-2,4-diamine], the IC50 (in general, the concentration needed to halve the response being measured) is 570 nM.

In turn, `CC(Nc1ncnc2scc(-c3ccccc3)c12)c1ccccn1` (centres unmarked) [Example 149, (5-Phenyl-thieno[2,3-d]pyrimidin-4-yl)-(1-pyridin-2-yl-ethyl)-amine] gave a concentration for half-maximal inhibition (IC50) of 370 nM. Consider `COCCNc1nc(NCc2ccccn2)c2c(-c3ccccc3)csc2n1` [Example 189, N^2-(2-Methoxyethyl)-5-phenyl-N^4-(pyridin-2-ylmethyl)thieno[2,3-d]pyrimidine-2,4-diamine], for which the IC50 is 280 nM. On to `COc1ccc(-c2csc3ncnc(NCc4ccccn4)c23)cc1` [Example 138, [5-(4-Methoxy-phenyl)-thieno[2,3-d]pyrimidin-4-yl]-pyridin-2-ylmethyl-amine], for which half-maximal inhibition (IC50) was put at 220 nM. `Nc1nc(NCc2ccccn2)c2c(-c3ccccc3)csc2n1` [Example 192, 5-Phenyl-N-4-pyridin-2-ylmethyl-thieno[2,3-d]pyrimidine-2,4-diamine] showed a concentration for half-maximal inhibition (IC50) of 2180 nM.

Tested on in another series: not given
Experiment: not given
Conditions: not given
In the case of `Cn1ccc2cc(-c3csc4ncnc(NCc5ccccn5)c34)ccc21` [Example 312, [5-(1-Methyl-1H-indol-5-yl)thieno[2,3-d]pyrimidin-4-yl]pyridin-2-ylmethylamine], the melting point (commonly the temperature, or range, at which the solid turns liquid) was 184 to 185 °C. Regarding `ClCc1nc(NCc2ccccn2)c2c(-c3ccccc3)csc2n1` [Example 301, (2-Chloromethyl-5-phenylthieno[2,3-d]pyrimidin-4-yl)pyridin-2-ylmethylamine], the melting point was 97 to 99 °C. `c1ccc(-c2csc3nc(NCC4CC4)nc(NCc4ccccn4)c23)cc1` [Example 188, N^2-Cyclopropylmethyl-5-phenyl-N^4-pyridin-2-ylmethyl-thieno[2,3-d]pyrimidine-2,4-diamine] returned a melting point of 109 to 111 °C. `OCCc1nc(NCc2ccccn2)c2c(-c3ccccc3)csc2n1` [Example 250, 2-{5-Phenyl-4-[(pyridin-2-ylmethyl)amino]thieno[2,3-d]pyrimidin-2-yl}ethanol] displayed a melting point of 90 to 92 °C.

For the compound `Cc1nc(NCc2ccccn2)c2c(-c3ccccc3)csc2n1` [Example 101, 2-Methyl-N-(2-pyridyl)methyl-5-phenylthieno[2,3-d]pyrimidin-4-ylamine], the melting point lay in the range of 110 to 112 °C.

`c1ccc(-c2csc3ncnc(NCc4ccco4)c23)cc1` [Example 83, Furan-2-ylmethyl-(5-phenyl-thieno[2,3-d]pyrimidin-4-yl)-amine] gave a melting point of 77 to 79 °C.
